According to patent US10835513B2, “Methods and treatments for the learning and memory deficits associated with Noonan syndrome” (The Regents of the University of California, priority 2013, dated 2020):

Tests used:
[1] = system: Erk; assay: p-Erk immunoblot of Ptpn11^D61G/+ hippocampi after lovastatin injection; type: in vivo, mice
Description: (§1) FIG. 6 are graphs showing that Lovastatin treatment reverses spatial learning and memory and LTP deficits in Ptpn11^D61G/+ mice. […] Left, Representative immunoblot showing p-Erk (upper) and total Erk (lower) levels in Ptpn11^D61G/+ mice and WT. Hippocampi were dissected 6 hr after the 4th day of lovastatin injection (subcutaneous (s.c.) injections, 10 mg/kg). Right, Bar graph displaying normalized p-Erk levels (mean±s.e.m.). n=7-8 per group. t-test, *P<0.05. […] Two-way ANOVA followed by Bonferroni post-test, WT/Veh vs. Ptpn11^D61G/+/Veh, *P<0.05, **P<0.01; Ptpn11^D61G/+/Veh vs. Ptpn11^D61G/+/Lova, +P<0.05. […] Two-way ANOVA with genotype as between-subjects factor and drug treatment as within-subjects factor, effect of genotype: F(1, 45)=19.79, ***P<0.0001, interaction: F (1,45)=0.4489, P=0.506.
As in AAV-PTPN11^D61G-infected mice, p-Erk levels were increased in Ptpn11^D61G/+ hippocampi (FIG. 6, panel a). […] Importantly, the spatial learning performance of lovastatin-treated Ptpn11^D61G/+ mice was indistinguishable from controls (FIG. 6, panels d, e).
Dissected hippocampi were homogenized in protein lysis buffer (10 mM Tris-Cl pH 6.8, 1.6% SDS) containing protease and phosphatase inhibitor cocktails (Sigma). Supernatants were collected after centrifugation and the protein concentration was determined using a BCA assay kit (Thermo). […]

[2] = system: hippocampal slices of Ptpn11^D61G/+ mice; assay: 5 TBS-induced LTP in hippocampal slices after systemic administrations of lovastatin; type: in vivo
Description: FIG. 6 are graphs showing that Lovastatin treatment reverses spatial learning and memory and LTP deficits in Ptpn11^D61G/+ mice. […] Left, Representative immunoblot showing p-Erk (upper) and total Erk (lower) levels in Ptpn11^D61G/+ mice and WT. Hippocampi were dissected 6 hr after the 4th day of lovastatin injection (subcutaneous (s.c.) injections, 10 mg/kg). Right, Bar graph displaying normalized p-Erk levels (mean±s.e.m.). n=7-8 per group. t-test, *P<0.05. […] Two-way ANOVA followed by Bonferroni post-test, WT/Veh vs. Ptpn11^D61G/+/Veh, *P<0.05, **P<0.01; Ptpn11^D61G/+/Veh vs. Ptpn11^D61G/+/Lova, +P<0.05. […]
For extracellular recordings of field excitatory postsynaptic potentials (fEPSP), sagittal slices (400 μm) were prepared with a vibratome (VT1000S, Leica) in ice-cold artificial cerebrospinal fluid (ACSF). […] Recording was performed in a submerged chamber perfused with ACSF (32° C.). fEPSPs were recorded with platinum-iridium electrodes placed in the CA1 stratum radiatum. […] Baseline responses were measured with stimulation (0.017 Hz, 0.1 ms pulse duration) at an intensity (typically 20-30 μA) that evoked a response that was approximately one third of the maximum evoked response. […] Initial fEPSP slopes were measured and normalized to the average of baseline (Clampfit 10.2).

[3] = system: Nf1^+/− mutant mice; conditions: previous study (ref. 21); cited from earlier work
[4] = system: Ptpn11^D61G/+ mice; assay: Morris water maze (hidden platform) in Ptpn11^D61G/+ mice treated with lovastatin; type: in vivo
Description: as §1
SL327 (Tocris) was dissolved in DMSO (16 mg/ml) and was injected intraperitoneally once daily, 30 min before the water maze experiment at a dose of 32 mg/kg. The volume of a single injection was under 80 μl. Lovastatin (Mevinolin, Sigma) was prepared as previously described^21. Briefly, lovastatin was dissolved in ethanol (final concentration of 8%) and 1N NaOH was added to convert mevinolin to the sodium salt. The pH of the final solution (4 mg/ml) was adjusted to 7.5 with HCl. The Vehicle solution was prepared with the same procedure. Lovastatin was administered daily (subcutaneous injection, 10 mg/kg) for 3 days before the first training day of the water maze and 6 hr before training every day thereafter.
In the hidden platform-version of Morris water maze, mice were trained with two blocks of 2 trials (ITI=1 min) spaced about 45 min apart. In each training trial, mice were released from a different starting position and then were allowed to search for the escape platform for 60 s. The platform was submerged 1 cm under the surface of the water. Once a mouse found the platform, it was left there for 15 s. […] Mice were trained for 5-7 consecutive days. Memory was assessed in probe trials that were given after completion of training as described in the main text. During the probe trial, the platform was removed and the mice were allowed to search for it for 60 s. Data were acquired and analyzed using WaterMaze software (Actimetrics).

[5] = Ptpn11^D61G/+ mice, lovastatin 10 mg/kg s.c.

Compound: CC[C@H](C)C(=O)O[C@H]1C[C@@H](C)C=C2C=C[C@H](C)[C@H](CC[C@@H]3C[C@@H](O)CC(=O)O3)[C@H]21 [Lovastatin]
- normalized p-Erk levels in hippocampi ([1]; Ptpn11^D61G/+ hippocampi, 6 hr after the 4th day of lovastatin s.c. 10 mg/kg): reverses increased Erk activation
- Erk activation in hippocampi ([1]; WT controls, lovastatin s.c. 10 mg/kg): did not affect Erk activation in controls
- Average % fEPSP changes (last 10 minutes of recordings), 5 TBS-induced LTP ([2]; Ptpn11^D61G/+ mice): 154.2±6.88%
- Average % fEPSP changes (last 10 minutes of recordings), 5 TBS-induced LTP ([2]; WT mice): 150.7±5.49%
- spatial learning problems, attention deficits and pre-pulse inhibition deficits [3]: can rescue
- proximity to the target platform, probe trial [4, 5]: 39.82±2.53 cm
- time in the target quadrant, probe trial [4, 5]: 45.70±4.43%
- latency to the hidden platform during training sessions ([4]; Ptpn11^D61G/+ mice, lovastatin 10 mg/kg s.c. daily): comparable latency to WT mice
- preference for the target quadrant, quadrant occupancy analysis ([4]; Ptpn11^D61G/+/Lova group, TQ vs. other quadrants): selectively searched for the target quadrant
- any measure of learning in WT animals ([4]; WT animals, lovastatin at the concentration used (10 mg/kg)): had no effect on any measure of learning
- proximity to the target platform, probe trial ([4]; WT mice, lovastatin 10 mg/kg s.c.): 35.28±3.26 cm
